What was measured:
[1] = biological target: D(1A) dopamine receptor (Canis familiaris); assay: The compound was evaluated for the dissociation constant for inhibiting the binding of [3H]-SCH- 23390 at Dopamine receptor D1
[2] = biological target: D(2) dopamine receptor (Sus scrofa); assay: The compound was evaluated for the binding affinity towards Dopamine receptor D2 at low affinity state.
[3] = biological target: D(2) dopamine receptor (Sus scrofa); assay: The compound was evaluated for the binding affinity towards Dopamine receptor D2 at high affinity state.
[4] = biological target: D(1A) dopamine receptor (Canis familiaris); assay: The compound was evaluated for the dissociation constant for inhibiting the binding of [3H]-SCH- 23390 at dopamine receptor D1
[5] = biological target: D(2) dopamine receptor (Sus scrofa); assay: The compound was evaluated for the binding affinity towards dopamine receptor D2 at high affinity state.

Ki [1] [nM]	Ki [2] [nM]	Ki [3] [nM]	Ki [4] [nM]	Ki [5] [nM]	SMILES
12	2000	39	–	–	Oc1cc2c(c(Br)c1O)CCNCC2c1ccccc1 (configuration not stated)
–	–	–	1.2	490	CN1CCc2c(cc(O)c(O)c2Br)C(c2ccccc2)C1 (configuration not stated)
–	–	–	0.9	77	CN1CCc2c(cc(O)c(O)c2Cl)C(c2ccccc2)C1 (configuration not stated)

From BindingDB's records for doi:10.1021/jm00116a004 (Northeastern University, 1992)
